Results from PubChem BioAssay (NCI).
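Five concentrations, 48 hours, 96-well plates. Here, GI50 denotes the concentration required for 50% inhibition of growth. TGI: concentration producing complete growth inhibition.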

What was measured:
Assay in all cases: DTP human tumour cell line panel, 48 h
A498 renal = system: A498 renal
HT29 colon = system: HT29 colon
IGROV1 ovarian = system: IGROV1 ovarian
M14 melanoma = system: M14 melanoma
OVCAR-4 ovarian = system: OVCAR-4 ovarian
SK-MEL-28 melanoma = system: SK-MEL-28 melanoma
SW-620 colon = system: SW-620 colon
U251 CNS = system: U251 CNS
BT-549 breast = system: BT-549 breast
PC-3 prostate = system: PC-3 prostate

## COc1cccc(C=O)c1C(=O)c1cc(O)ccc1O
A498 renal
  TGI: > 63.7 µM
HT29 colon
  TGI: > 76.3 µM
IGROV1 ovarian
  TGI: > 62.5 µM
M14 melanoma
  TGI: 35 µM
OVCAR-4 ovarian
  TGI: 35.7 µM
SK-MEL-28 melanoma
  TGI: > 61.4 µM
SW-620 colon
  TGI: 33.2 µM
U251 CNS
  TGI: > 100 µM

## CC#C[C@]1(O)CCC2[C@@H]3CCC4=CC(=O)CCC4=C3[C@@H](c3ccc(N(C)C)cc3)C[C@@]21C (stereo not given in full)
BT-549 breast
  TGI: 50.7 µM
HT29 colon
  TGI: 28.7 µM
M14 melanoma
  TGI: 32.1 µM
OVCAR-4 ovarian
  TGI: 33.5 µM
PC-3 prostate
  TGI: 88.7 µM
SK-MEL-28 melanoma
  TGI: 29.5 µM
SW-620 colon
  TGI: > 100 µM
U251 CNS
  TGI: 35.2 µM

## COc1ccc(Nc2nc3cc(C(F)(F)F)ccc3nc2-c2ccccc2)cc1OC
A498 renal
  TGI: > 100 µM
HT29 colon
  TGI: > 100 µM
IGROV1 ovarian
  TGI: > 100 µM
M14 melanoma
  TGI: > 100 µM
OVCAR-4 ovarian
  TGI: > 100 µM
SK-MEL-28 melanoma
  TGI: 63.8 µM
SW-620 colon
  TGI: > 100 µM
U251 CNS
  TGI: > 100 µM

## NC1N=Nc2ccccc21 (stereo not given)
HT29 colon
  TGI: > 100 µM
IGROV1 ovarian
  TGI: > 100 µM
M14 melanoma
  TGI: > 100 µM
OVCAR-4 ovarian
  TGI: > 100 µM
SK-MEL-28 melanoma
  TGI: > 100 µM
SW-620 colon
  TGI: > 100 µM
U251 CNS
  TGI: > 100 µM

## COc1cccc2c1OC1Sc3ccccc3-c3nn(-c4ccccc4)c-2c31 (stereo not given)
A498 renal
  TGI: > 100 µM
HT29 colon
  TGI: > 100 µM
IGROV1 ovarian
  TGI: > 100 µM
SK-MEL-28 melanoma
  TGI: > 100 µM
SW-620 colon
  TGI: > 100 µM
U251 CNS
  TGI: > 100 µM

## O=C(C=Nc1ccccc1C(=O)[O-])c1cccs1.O=C(C=Nc1ccccc1C(=O)[O-])c1cccs1.[Ni+2]
A498 renal
  TGI: > 100 µM
HT29 colon
  TGI: > 100 µM
IGROV1 ovarian
  TGI: > 100 µM
M14 melanoma
  TGI: > 100 µM
SK-MEL-28 melanoma
  TGI: > 100 µM
SW-620 colon
  TGI: > 100 µM
U251 CNS
  TGI: > 100 µM

## O=[N+]([O-])c1cc(-c2nc(=S)[nH][nH]2)ccc1O
A498 renal
  TGI: > 100 µM
HT29 colon
  TGI: > 100 µM
IGROV1 ovarian
  TGI: > 100 µM
M14 melanoma
  TGI: > 100 µM
OVCAR-4 ovarian
  TGI: > 100 µM
SK-MEL-28 melanoma
  TGI: > 100 µM
SW-620 colon
  TGI: 18.4 µM
U251 CNS
  TGI: > 100 µM

## N/C=N/S(=O)(=O)c1ccc(NC(=O)COC(=O)c2cccc3c(=O)c4ccccc4[nH]c23)cc1
HT29 colon
  TGI: > 100 µM
IGROV1 ovarian
  TGI: > 100 µM
M14 melanoma
  TGI: > 100 µM
SK-MEL-28 melanoma
  TGI: > 100 µM
SW-620 colon
  TGI: > 100 µM
U251 CNS
  TGI: > 100 µM

## COc1cc2c3c(n(CCCN(CCCN(CCCn4c5c(c6ccccc6c4=O)C(=O)c4ccccc4-5)C(=O)OC(C)(C)C)C(=O)OC(C)(C)C)c(=O)c2cc1OC)-c1cc2c(cc1C3=O)OCO2
BT-549 breast
  GI50: 34.7 µM
  TGI: > 100 µM
HT29 colon
  GI50: > 100 µM
  TGI: > 100 µM
IGROV1 ovarian
  GI50: > 100 µM
  TGI: > 100 µM
M14 melanoma
  GI50: > 100 µM
  TGI: > 100 µM
OVCAR-4 ovarian
  GI50: > 100 µM
  TGI: > 100 µM
PC-3 prostate
  GI50: > 100 µM
  TGI: > 100 µM
SK-MEL-28 melanoma
  GI50: > 100 µM
  TGI: > 100 µM
SW-620 colon
  GI50: > 100 µM
  TGI: > 100 µM
U251 CNS
  GI50: > 100 µM
  TGI: > 100 µM

## CCCCCCCCCCCCCC[n+]1ccccc1
A498 renal
  GI50: 0.717 µM
  TGI: 3.57 µM
HT29 colon
  GI50: 0.269 µM
  TGI: 1.46 µM
M14 melanoma
  GI50: 0.459 µM
  TGI: 1.98 µM
OVCAR-4 ovarian
  GI50: 0.32 µM
  TGI: 2.91 µM
PC-3 prostate
  GI50: 0.204 µM
  TGI: 0.774 µM
SK-MEL-28 melanoma
  GI50: 1.31 µM
  TGI: 3.03 µM
SW-620 colon
  GI50: 0.779 µM
  TGI: 2.59 µM
U251 CNS
  GI50: 0.426 µM
  TGI: 1.77 µM

## O=Cc1cccc2ccc3ccccc3c12
A498 renal
  TGI: 62.7 µM
BT-549 breast
  TGI: 96.9 µM
HT29 colon
  TGI: 54.2 µM
M14 melanoma
  TGI: 49.4 µM
PC-3 prostate
  TGI: 55.5 µM
SW-620 colon
  TGI: 74.3 µM
U251 CNS
  TGI: 58.7 µM

## O=C(CN1CCCC1=O)CS(=O)(=O)c1ccccc1
BT-549 breast
  TGI: > 100 µM
HT29 colon
  TGI: > 100 µM
IGROV1 ovarian
  TGI: > 100 µM
M14 melanoma
  TGI: > 100 µM
PC-3 prostate
  TGI: > 100 µM
SK-MEL-28 melanoma
  TGI: > 100 µM
SW-620 colon
  TGI: > 100 µM
U251 CNS
  TGI: > 100 µM

## N#CCCN(CCC#N)c1ccc(/C=C(/NC(=O)c2cc([N+](=O)[O-])ccc2Cl)C(=O)NN)cc1
A498 renal
  TGI: > 100 µM
HT29 colon
  TGI: > 100 µM
IGROV1 ovarian
  TGI: > 100 µM
M14 melanoma
  TGI: > 100 µM
OVCAR-4 ovarian
  TGI: > 100 µM
SK-MEL-28 melanoma
  TGI: > 100 µM
SW-620 colon
  TGI: > 100 µM
U251 CNS
  TGI: > 100 µM

## Nc1nc(N)c(CCCCc2ccccc2)c(C=O)n1
A498 renal
  TGI: > 100 µM
HT29 colon
  TGI: 26.5 µM
IGROV1 ovarian
  TGI: 38.1 µM
M14 melanoma
  TGI: 44.1 µM
OVCAR-4 ovarian
  TGI: 70.6 µM
SK-MEL-28 melanoma
  TGI: 32.3 µM
SW-620 colon
  TGI: 30.9 µM
U251 CNS
  TGI: 49.6 µM

## CCc1ccccc1NC(=O)C(C#N)C1=C(Cl)C(=O)c2ccccc2C1=O (stereo not given)
BT-549 breast
  TGI: 71.7 µM
HT29 colon
  TGI: 37.9 µM
IGROV1 ovarian
  TGI: 32.8 µM
M14 melanoma
  TGI: 21.8 µM
OVCAR-4 ovarian
  TGI: 27.6 µM
PC-3 prostate
  TGI: 33 µM
SK-MEL-28 melanoma
  TGI: 36.4 µM
SW-620 colon
  TGI: 44 µM
U251 CNS
  TGI: 29.8 µM

## COc1cc(-c2cc3ncccc3c3nc(OCCN(C)C)c4cccnc4c23)cc(OC)c1OC
BT-549 breast
  GI50: 0.665 µM
  TGI: 3.19 µM
HT29 colon
  GI50: 0.383 µM
  TGI: > 100 µM
IGROV1 ovarian
  GI50: 0.466 µM
  TGI: 1.99 µM
M14 melanoma
  GI50: 0.485 µM
  TGI: 10.4 µM
OVCAR-4 ovarian
  GI50: 0.418 µM
  TGI: 2.52 µM
PC-3 prostate
  GI50: 0.731 µM
  TGI: > 100 µM
SK-MEL-28 melanoma
  GI50: 0.639 µM
  TGI: 2.42 µM
SW-620 colon
  GI50: 0.324 µM
  TGI: 15.2 µM
U251 CNS
  GI50: 0.391 µM
  TGI: 1.66 µM

## COc1ccc2c(c1)Oc1cc(O)ccc1[C@H]2c1ccccc1C(=O)NC(C)c1ccccc1 (stereo not given in full)
A498 renal
  TGI: 30.8 µM
HT29 colon
  TGI: 41.5 µM
IGROV1 ovarian
  TGI: 31.5 µM
M14 melanoma
  TGI: 26.1 µM
SK-MEL-28 melanoma
  TGI: 34.7 µM
SW-620 colon
  TGI: 35.6 µM
U251 CNS
  TGI: 29.4 µM

## Cc1ccc([Se](=C(C(=O)c2ccccc2)C(=O)c2ccccc2)c2ccc(C)cc2)cc1
A498 renal
  TGI: 49 µM
HT29 colon
  TGI: 35.2 µM
IGROV1 ovarian
  TGI: 78.5 µM
M14 melanoma
  TGI: > 100 µM
OVCAR-4 ovarian
  TGI: 50.1 µM
PC-3 prostate
  TGI: 82.5 µM
SK-MEL-28 melanoma
  TGI: > 100 µM
SW-620 colon
  TGI: > 100 µM
U251 CNS
  TGI: 68.2 µM

## CC(=O)c1ccccc1NC(=O)C(=O)C(C(=O)c1ccc2ccccc2c1)C1OC(=O)c2ccccc21 (stereo not given)
A498 renal
  TGI: 43.9 µM
HT29 colon
  TGI: 92.4 µM
IGROV1 ovarian
  TGI: 52.6 µM
M14 melanoma
  TGI: 36.6 µM
OVCAR-4 ovarian
  TGI: 57 µM
SK-MEL-28 melanoma
  TGI: 32.5 µM
SW-620 colon
  TGI: 40.6 µM
U251 CNS
  TGI: 40.7 µM

## COc1cc2c(cc1OC)C(C#N)N(C(=O)c1ccccc1)C=C2OC(=O)c1ccccc1 (stereo not given)
HT29 colon
  TGI: > 100 µM
IGROV1 ovarian
  TGI: 50.2 µM
M14 melanoma
  TGI: > 100 µM
SK-MEL-28 melanoma
  TGI: 58.1 µM
SW-620 colon
  TGI: > 100 µM
U251 CNS
  TGI: 74.7 µM

## O=C(Cc1ccccc1[N+](=O)[O-])C(CO)c1ccccc1[N+](=O)[O-] (stereo not given)
A498 renal
  TGI: > 100 µM
HT29 colon
  TGI: > 100 µM
IGROV1 ovarian
  TGI: > 100 µM
M14 melanoma
  TGI: > 100 µM
OVCAR-4 ovarian
  TGI: > 100 µM
SK-MEL-28 melanoma
  TGI: > 100 µM
SW-620 colon
  TGI: > 100 µM
U251 CNS
  TGI: > 100 µM

## c1ccc2c(c1)SC(=C1Sc3ccccc3S1)S2
HT29 colon
  TGI: > 100 µM
IGROV1 ovarian
  TGI: > 100 µM
M14 melanoma
  TGI: > 100 µM
OVCAR-4 ovarian
  TGI: > 100 µM
SK-MEL-28 melanoma
  TGI: > 100 µM
SW-620 colon
  TGI: > 100 µM
U251 CNS
  TGI: > 100 µM
